# Entries after “also recorded” stand apart in the source; their conditions may differ.
# Columns and labels:
# cells = assay: Relative timing of CoQ10 and chemotherapeutic agents, cell killing in vitro (Example 7); assay type: cell-based; details: Example 7, written in present tense
# Method: Using the methods in Example 6, cells are tested to determine if the relative timing of treatment of cells with CoQ10 and chemotherapeutic agents has an effect on cell killing, e.g., by promotion of apoptosis, induction of tumor lysis, inhibition of cell proliferation.
# Briefly, cells are cultured as in Example 6. Cells are treated with CoQ10 and chemotherapeutic agents, either alone or in combination, or with appropriate vehicle controls. For the cells treated with both CoQ10 and chemotherapeutic agents, the cells are contacted with the CoQ10 and chemotherapeutic agents in various sequences. Various concentrations of CoQ10 and chemotherapeutic agents are used. Various treatment times are also used.
# After treatment with CoQ10 and chemotherapy as indicated, cells are harvested and assayed for viability and apoptosis using the methods provided above. […] The metabolic switch effectuated by CoQ10 in cancer cells is associated with induction of a novel integrated signaling cross-talk involving TP53, Bcl-2/Bax and VEGF that results in the recapitulation of apoptotic pathways.
# [1] = tested on: MIAPaCa-2 human pancreatic tumor cells; assay: Xenogeneic mouse human pancreatic cancer model, tumors harvested at mortality (size, weight, vasculature, palpation); assay type: in vivo, NOD scid gamma (NSG) mice
# [2] = Prior experiments, signs of toxicity; assay type: in vivo; details: three times per week at up to 50 mg/kg
# Method: Sterile CoQ10 formula and the suitable sterile control is administered intravenously. CoQ10 doses are administered based on ongoing results. […] The effect of CoQ10 is compared with other chemotherapy regimens specific for each cancer line. Another arm of the study evaluates synergistic effects between CoQ10 and other chemotherapeutic agents.
# [3] = tested on: MIAPaCa-2, SKOV-3, PC-3, HT-29, MCF7, MDA-MB231, SKBR-3, A549, Hep3B cancer cells; assay: In vitro CoQ10 monotherapy of various cancer cell types; assay type: cell-based; details: 100 μM CoQ10 for 48-72 hours; FIG. 16
# Method: Cells were treated with 100 μM CoQ10 for 48-72 hours.
# [4] = tested on: MDA-MB213 breast cancer cells; assay: Reactive oxygen species (ROS) production; assay type: cell-based; details: 100 μM CoQ10 for 24 hours, FIG. 17
# Method: (§1) Cells were treated with 100 μM CoQ10 for 24 hours.
# (§2) Mitochondria represent a significant source of ROS which are known to participate in activation of cell death pathways.
# [5] = tested on: non-tumorigenic control cells (MCF12A); assay: Reactive oxygen species (ROS) production; assay type: cell-based; details: 100 μM CoQ10 for 24 hours, FIG. 17
# Method: as §1, §2
smiles,measurement,setting,value
"COC1=C(OC)C(=O)C(C/C=C(\C)CC/C=C(\C)CC/C=C(\C)CC/C=C(\C)CC/C=C(\C)CC/C=C(\C)CC/C=C(\C)CC/C=C(\C)CC/C=C(\C)CCC=C(C)C)=C(C)C1=O [CoQ10, Coenzyme Q10]","Cell killing, pretreatment with CoQ10, discontinuation, then chemotherapy",cells,also effective in cell killing
same,"Cell killing, pretreatment with CoQ10 followed by concurrent CoQ10 and chemotherapy",cells,effective in cell killing
same,"Cell killing, pretreatment with CoQ10 prior to chemotherapy",cells,more effective in cell killing than co-treatment with CoQ10 and chemotherapy or treatment with CoQ10 after chemotherapy
same,Growth of pancreatic tumors (tumor size at time of death) vs control,"[1]; Example 1, single agents: Group 2 Coenzyme Q10 IV 50 mg/kg/day, Group 3 gemcitabine 150 mg/kg/week, FIG. 2",inhibited the growth of pancreatic tumors; also recorded: inhibits pancreatic tumor growth
same,Tumor vasculature (histological analysis),"[1]; Example 1, intravenous Coenzyme Q10 vs untreated control mice, not quantified",decreased tumor vasculature; also recorded: decrease in the amount of vasculature in pancreatic tumors
same,"Tumor weight / tumor growth, combination of Coenzyme Q10 and gemcitabine (Group 4)","[1]; Example 1, vs Coenzyme Q10 alone or gemcitabine alone, FIG. 3",significantly smaller than tumors from mice treated with Coenzyme Q10 alone; also recorded: more effective at inhibiting the growth of pancreatic tumors in mice than treatment with either agent alone
same,"Tumor weight at mortality, Coenzyme Q10 alone (Group 2)","[1]; Example 1, vs control group and gemcitabine treated group, FIG. 3",significantly smaller than tumors from mice in the control group
same,Signs of toxicity,[2],no signs of toxicity
same,Cell death in cancer cells,[3],increased cell death
same,ROS production,[4],increased ROS production
same,ROS production,[5],increased ROS production

# — patent US10933032B2, “Methods for the treatment of cancer using coenzyme Q10 combination therapies” (Berg LLC, priority 2013, dated 2021)
